Tested on: not given
Settings: not given

SMILES | melting point
COc1cccc(/C=C/c2ccc(Cl)cc2)c1 [Compound 99, (E)-4′-Chloro-3-methoxystilbene] | 71 to 72 °C
Fc1ccc(/C=C/c2ccc(F)cc2)cc1 [Compound 90, (E)-4,4′-Difluorostilbene] | 116 to 117 °C
Fc1ccc(/C=C/c2cccc(F)c2)cc1 [Compound 98, (E)-3,4′-Difluorostilbene] | 92 to 93 °C

Tested on: MCF-7/6 mammary carcinoma cells
Design: unit not given here
Settings: training set compounds 1-34, Indo-Belgian screening program; class = log cmin, lowest concentration with invasion grade I or II; cited from earlier work

SMILES | Actual class
COc1cc(OC)c(C(=O)/C=C/c2cccc(Oc3ccccc3)c2)cc1CC=C(C)C [Compound 34, (2E)-3-(3-phenoxyphenyl)-1-(2′,4′-dimethoxy-5′-(3-methylbut-2-enyl)phenyl)propenone] | 3 (>100)
COc1cc(OC)c(C(=O)/C=C/c2ccccc2)cc1CC=C(C)C [Compound 18, (2E)-3-phenyl-1-(2′,4′-dimethoxy-5′-(3-methylbut-2-enyl)phenyl)propenone] | 0 (about 1)
COc1cccc(/C=C/C(=O)c2cc3c(cc2O)OC(C)(C)C(O)C3)c1OC (centres unmarked) [Compound 9, (2E)-1-(3,7-Dihydroxy-2,2-dimethylchroman-6-yl)-3-(2,3-dimethoxy-phenyl)propenone] | 1 (about 10)
COc1cc(/C=C/C(=O)c2ccc(OCc3ccccc3)c(OCc3ccccc3)c2)ccc1OCc1ccccc1 [Compound 13, (2E)-3-(4-Benzyloxy-3-methoxyphenyl)-1-(3,4-bis-benzyloxyphenyl)propenone] | 1 (about 10)
COc1ccc(C(=O)/C=C/c2ccc([N+](=O)[O-])cc2)cc1OC [Compound 20, (2E)-3-(4-nitrophenyl)-1-(3′,4′-dimethoxyphenyl)propenone] | 3 (>100)
COc1cc(OC)c(C(=O)/C=C/c2ccc([N+](=O)[O-])cc2)cc1CC=C(C)C [Compound 10, (2E)-3-(4-nitrophenyl)-1-(2′,4′-dimethoxy-5′-(3-methylbut-2-enyl)phenyl)propenone] | 3 (>100)
CC(C)c1ccc(/C=C/C(=O)c2c(O)c3c(c4c2OC(C)(C)CC4)OC(C)(C)CC3)cc1 [Compound 8, (2E)-1-(5-Hydroxy-2,2,8,8-tetramethyl-3,4,9,10-tetrahydro-2H,8H-pyrano[2,3-f]chromen-6-yl)-3-(4-isopropylphenyl)propenone] | 3 (>100)
COc1cc(OC)c(C(=O)/C=C/c2ccc3c(c2CCc2ccccc2)CCC(C)(C)O3)cc1CC=C(C)C [Compound 5, (2E)-1-[2,4-Dimethoxy-5-(3-methylbut-2-enyl)phenyl]-3-(2,2-dimethyl-5-phenethylchroman-6-yl)propenone] | 1 (about 10)
COc1ccc(/C=C/C(=O)c2ccc3c(c2)OCO3)c(OC)c1 [Compound 22, (2E)-1-Benzo[1,3]dioxol-5-yl-3-(2,4-dimethoxyphenyl)propenone] | 2 (about 100)
COc1cccc(/C=C/C(=O)c2ccc3c(c2)OCO3)c1OC [Compound 26, (2E)-1-Benzo[1,3]dioxol-5-yl-3-(2,3-dimethoxyphenyl)propenone] | 1 (about 10)
CCOc1ccc(/C=C/C(=O)c2cc(C(c3ccccc3)c3ccccc3)c(OC)cc2O)cc1 [Compound 2, (2E)-1-(5-Benzhydryl-2-hydroxy-4-methoxyphenyl)-3-(4-ethoxyphenyl)propenone] | 3 (>100)
COc1cc(OC)c(C(=O)/C=C/c2ccccc2)c(O)c1CC=C(C)C [Compound 11, (2E)-3-phenyl-1-(2′-hydroxy-4′,6′-dimethoxy-3′-(3-methylbut-2-enyl)phenyl)propenone] | 2 (about 100)
Cc1ccc(/C=C/C(=O)c2c(O)c3c(c4c2OC(C)(C)CC4)OC(C)(C)CC3)cc1 [Compound 4, (2E)-1-(5-Hydroxy-2,2,8,8-tetramethyl-3,4,9,10-tetrahydro-2H,8H-pyrano[2,3-f]chromen-6-yl)-3-p-tolyl-propenone] | 3 (>100)
COc1ccc(C(=O)/C=C/c2cccc(Oc3ccccc3)c2)cc1OC [Compound 32, (2E)-3-(3-phenoxyphenyl)-1-(3′,4′-dimethoxyphenyl)propenone] | 3 (>100)
COc1cc(O)c(C(=O)/C=C/c2ccc(Oc3ccccc3)cc2)cc1C(c1ccccc1)c1ccccc1 [Compound 3, (2E)-1-(5-Benzhydryl-2-hydroxy-4-methoxyphenyl)-3-(4-phenoxyphenyl)propenone] | 3 (>100)
COc1cc(OC)c(C(=O)/C=C/c2ccc(C(C)C)cc2)cc1CC=C(C)C [Compound 14, (2E)-3-(4-(1-methylethyl)phenyl)-1-(2′,4′-dimethoxy-5′-(3-methylbut-2-enyl)phenyl)propenone] | 1 (about 10)
COc1cc(OC)c(C(=O)/C=C/c2ccccc2)c(O)c1OC [Compound 17, (2E)-3-phenyl-1-(2′-hydroxy-3′,4′,6′-trimethoxyphenyl)propenone] | 2 (about 100)
COc1cc(O)c(CC=C(C)C)c(O)c1C(=O)/C=C/c1ccc(O)cc1 [Compound 27, (2E)-3-(4-hydroxyphenyl)-1-(2′,4′-dihydroxy-6′-methoxy-3′-(3-methylbut-2-enyl)phenyl)propenone] | 0 (about 1)
COc1ccc(/C=C/C(=O)c2cc(CC=C(C)C)c(OC)cc2OC)c(OC)c1 [Compound 33, (2E)-3-(2,4-dimethoxyphenyl)-1-(2′,4′-dimethoxy-5′-(3-methylbut-2-enyl)phenyl)propenone] | 3 (>100)
C=CCOc1c(OC)cc(O)c(C(=O)/C=C/c2ccc(O)cc2)c1OC [Compound 28, (2E)-3-(4-hydroxyphenyl)-1-(6′-hydroxy-2′,4′-dimethoxy-3′-(2-propenyloxy)phenyl)propenone] | 1 (about 10)
COc1ccc(/C=C/C(=O)c2cc3c(cc2O)OC(C)(C)C(O)C3)c(OC)c1 (centres unmarked) [Compound 12, (2E)-1-(3,7-Dihydroxy-2,2-dimethylchroman-6-yl)-3-(2,4-dimethoxy-phenyl)propenone] | 1 (about 10)
COc1ccc(/C=C/C(=O)c2cc3c(cc2OC)OC(C)(C)C(O)C3)c(OC)c1 (centres unmarked) [Compound 29, (2E)-3-(2,4-Dimethoxyphenyl)-1-(3-hydroxy-7-methoxy-2,2-dimethylchroman-6-yl)-propenone] | 3 (>100)
COc1ccc(/C=C/C(=O)c2cc3c(cc2O)OC(C)(C)C=C3)c(OC)c1 [Compound 30, (2E)-3-(2,4-Dimethoxyphenyl)-1-(7-hydroxy-2,2-dimethyl-2H-chromen-6-yl)propenone] | 3 (>100)
COc1ccc(/C=C/C(=O)c2cc(C(c3ccccc3)c3ccccc3)c(OC)cc2O)cc1 [Compound 1, (2E)-1-(5-Benzhydryl-2-hydroxy-4-methoxyphenyl)-3-(4-methoxyphenyl)propenone] | 3 (>100)
COc1cc(O)c(C(=O)/C=C/c2ccccc2)c(OC)c1OC [Compound 21, (2E)-3-phenyl-1-(6′-hydroxy-2′,3′,4′-trimethoxyphenyl)propenone] | 0 (about 1)
COc1ccc(C(=O)/C=C/c2ccc(C)cc2)cc1OC [Compound 16, (2E)-3-(4-methylphenyl)-1-(3′,4′-dimethoxyphenyl)propenone] | 2 (about 100)
COc1cc(OC)c(C(=O)/C=C/c2ccccc2)c2c1CC(O)C(C)(C)O2 (centres unmarked) [Compound 24, (2E)-1-(3-Hydroxy-5,7-dimethoxy-2,2-dimethylchroman-8-yl)-3-phenylpropenone] | 0 (about 1)
COc1ccc(/C=C/C(=O)c2cc3c(cc2O)OC(C)(C)CC3)cc1OC [Compound 23, (2E)-3-(3,4-Dimethoxyphenyl)-1-(7-hydroxy-2,2-dimethylchroman-6-yl)propenone] | 2 (about 100)
COc1ccc(/C=C/C(=O)c2c(O)c3c(c4c2OC(C)(C)CC4)OC(C)(C)CC3)cc1OCc1ccccc1 [Compound 7, (2E)-3-(3-Benzyloxy-4-methoxy-phenyl)-1-(5-hydroxy-2,2,8,8-tetramethyl-3,4,9,10-tetrahydro-2H,8H-pyrano[2,3-f]chromen-6-yl)propenone] | 3 (>100)
